ChEMBL document CHEMBL5209590, “Membrane potential based transport assay for SLC7A3 using HEK293 JumpIn SLC7A3 OE cells” (2022)

Target: Cationic amino acid transporter 3 (Homo sapiens, UniProt Q8WY07)
Test: Substrate uptake by the Cationic Amino Acid Transporter (CAT-3, SLC7A3) as assessed by the fluorescent FLIPR membrane potential dye in HEK-293 JumpIN-SLC7A3 cells (PubChem AID: 1745863)
Assay type: functional, cell-based, HEK293

Cationic amino acid transporter 3, sequence (Q8WY07 whole entry): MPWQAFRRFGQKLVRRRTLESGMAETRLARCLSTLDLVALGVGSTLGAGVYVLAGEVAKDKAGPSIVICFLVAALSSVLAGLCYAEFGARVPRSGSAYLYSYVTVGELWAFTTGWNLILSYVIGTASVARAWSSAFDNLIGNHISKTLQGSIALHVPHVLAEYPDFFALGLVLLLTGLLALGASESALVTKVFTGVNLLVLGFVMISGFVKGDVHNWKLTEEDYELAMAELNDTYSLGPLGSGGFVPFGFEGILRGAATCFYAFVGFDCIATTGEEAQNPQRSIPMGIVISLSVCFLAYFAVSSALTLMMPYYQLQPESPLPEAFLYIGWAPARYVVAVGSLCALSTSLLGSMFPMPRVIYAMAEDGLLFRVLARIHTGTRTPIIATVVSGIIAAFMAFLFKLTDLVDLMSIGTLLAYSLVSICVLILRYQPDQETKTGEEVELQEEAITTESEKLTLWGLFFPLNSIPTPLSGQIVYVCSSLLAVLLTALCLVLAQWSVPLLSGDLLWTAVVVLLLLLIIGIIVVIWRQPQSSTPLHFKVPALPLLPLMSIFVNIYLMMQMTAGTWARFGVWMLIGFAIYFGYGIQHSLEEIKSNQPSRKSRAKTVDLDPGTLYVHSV

Structure (SMILES) | EC50 [µM]
NCCC[C@H](N)C(=O)O | 237
N=C(N)NCCC[C@H](N)C(=O)O [ARGININE] | 283
NCCCC[C@H](N)C(=O)O [LYSINE] | 158
